We go through two molecules from ChEMBL document CHEMBL4024794 (J Med Chem, 2018).

Active and inactive are the calls of the source. The rule behind the calls is not given here.

The target of assay [1] is T1, Nicotinamide N-methyltransferase (Homo sapiens, UniProt P40261).
T1 sequence (P40261 whole entry): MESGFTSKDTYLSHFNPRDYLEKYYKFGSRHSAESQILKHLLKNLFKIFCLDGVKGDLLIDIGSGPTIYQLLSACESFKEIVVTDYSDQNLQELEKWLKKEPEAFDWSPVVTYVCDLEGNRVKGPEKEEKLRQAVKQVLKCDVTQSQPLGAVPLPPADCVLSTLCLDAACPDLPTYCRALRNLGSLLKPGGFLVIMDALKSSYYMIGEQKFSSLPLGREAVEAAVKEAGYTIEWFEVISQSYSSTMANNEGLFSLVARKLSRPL
As to the kind of experiment: Inhibition of human NNMT (1 to 264 residues) expressed in Escherichia coli BL21 (DE3) using nicotinamide/SAM as substrate/co-factor measured for 20 mins by SAHH-coupled fluorescent assay.

Assay [2] deals with T1, Nicotinamide N-methyltransferase. Nature of the assay: Binding affinity to human NNMT (1 to 264 residues) expressed in Escherichia coli BL21 (DE3) by isothermal titration calorimetric method.
For assay [3], the target named is Histone-lysine N-methyltransferase, H3 lysine-79 specific (Homo sapiens, UniProt Q8TEK3). Nature of the assay: Inhibition of DOT1L (unknown origin) after 1 hr by filter-based assay.
Assay [4] addresses T2, Protein arginine N-methyltransferase 7 (Homo sapiens, UniProt Q9NVM4).
T2 sequence (Q9NVM4 whole entry): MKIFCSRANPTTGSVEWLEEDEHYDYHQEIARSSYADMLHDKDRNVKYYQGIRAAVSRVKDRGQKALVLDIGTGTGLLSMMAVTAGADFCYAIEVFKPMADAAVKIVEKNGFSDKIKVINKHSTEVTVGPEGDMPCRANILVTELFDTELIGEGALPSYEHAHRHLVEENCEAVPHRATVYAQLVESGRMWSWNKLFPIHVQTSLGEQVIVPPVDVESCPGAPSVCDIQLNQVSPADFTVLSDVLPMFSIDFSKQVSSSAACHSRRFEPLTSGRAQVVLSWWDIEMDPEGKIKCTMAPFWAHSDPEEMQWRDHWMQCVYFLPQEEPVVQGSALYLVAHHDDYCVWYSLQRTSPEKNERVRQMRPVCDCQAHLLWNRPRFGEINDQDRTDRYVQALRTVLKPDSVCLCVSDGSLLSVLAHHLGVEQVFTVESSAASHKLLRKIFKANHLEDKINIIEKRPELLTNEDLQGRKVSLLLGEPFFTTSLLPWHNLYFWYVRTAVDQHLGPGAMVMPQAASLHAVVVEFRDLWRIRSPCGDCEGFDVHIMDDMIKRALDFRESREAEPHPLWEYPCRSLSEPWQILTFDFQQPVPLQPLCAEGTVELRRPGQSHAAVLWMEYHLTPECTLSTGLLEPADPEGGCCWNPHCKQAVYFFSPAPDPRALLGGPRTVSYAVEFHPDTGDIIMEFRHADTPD
Nature of the assay: Inhibition of PRMT7 (unknown origin) using [3H]-SAM as co-factor by scintillation proximity assay.

Assay [5] has as its target T3, RNA 5'-monophosphate methyltransferase (Homo sapiens, UniProt Q7Z5W3).
T3 sequence (Q7Z5W3 whole entry): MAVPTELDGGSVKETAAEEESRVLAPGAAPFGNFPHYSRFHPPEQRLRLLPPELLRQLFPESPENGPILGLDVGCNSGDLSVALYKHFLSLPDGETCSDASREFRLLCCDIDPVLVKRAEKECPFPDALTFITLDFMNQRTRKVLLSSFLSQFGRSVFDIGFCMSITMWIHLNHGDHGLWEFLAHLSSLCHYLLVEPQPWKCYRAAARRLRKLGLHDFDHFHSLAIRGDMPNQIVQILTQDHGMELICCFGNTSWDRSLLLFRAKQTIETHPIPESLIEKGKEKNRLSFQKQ
As to the kind of experiment: Inhibition of BCDIN3D (unknown origin) using [3H]-SAM as co-factor by scintillation proximity assay. Background: Scintillation proximity formats need no separation of bound from free tracer.

Assay [6] concerns the target N-lysine methyltransferase SMYD2 (Homo sapiens, UniProt Q9NRG4). Nature of the assay: Inhibition of SMYD2 (unknown origin) using [3H]-SAM as co-factor by scintillation proximity assay.
Assay [7] addresses T4, Nicotinamide N-methyltransferase (Homo sapiens) (UniProt P40261).
T4 sequence (whole entry): T1 sequence (P40261 whole entry)
Nature of the assay: Competitive inhibition of human NNMT (1 to 264 residues) expressed in Escherichia coli BL21 (DE3) at 1 to 250 uM measured for 20 mins in presence of varying concentration of SAM by Lineweaver-Burk plot analysis.

Assay [8] has as its target T4, Nicotinamide N-methyltransferase (Homo sapiens). As to the kind of experiment: Nonompetitive inhibition of human NNMT (1 to 264 residues) expressed in Escherichia coli BL21 (DE3) at 1 to 250 uM measured for 20 mins in presence of varying concentration of nicotinamide by Lineweaver-Burk plot analysis.
For assay [9] the target is unchanged.
Description: Binding affinity to human NNMT (1 to 264 residues) expressed in Escherichia coli BL21 (DE3) assessed as change in enthalpy by isothermal titration calorimetric method
For assay [10] the target is unchanged. The source holds these as a separate data set.
Description: Binding affinity to human NNMT (1 to 264 residues) expressed in Escherichia coli BL21 (DE3) assessed as change in entropy by isothermal titration calorimetric method

Sequence of N-lysine methyltransferase SMYD2 (Q9NRG4 whole entry): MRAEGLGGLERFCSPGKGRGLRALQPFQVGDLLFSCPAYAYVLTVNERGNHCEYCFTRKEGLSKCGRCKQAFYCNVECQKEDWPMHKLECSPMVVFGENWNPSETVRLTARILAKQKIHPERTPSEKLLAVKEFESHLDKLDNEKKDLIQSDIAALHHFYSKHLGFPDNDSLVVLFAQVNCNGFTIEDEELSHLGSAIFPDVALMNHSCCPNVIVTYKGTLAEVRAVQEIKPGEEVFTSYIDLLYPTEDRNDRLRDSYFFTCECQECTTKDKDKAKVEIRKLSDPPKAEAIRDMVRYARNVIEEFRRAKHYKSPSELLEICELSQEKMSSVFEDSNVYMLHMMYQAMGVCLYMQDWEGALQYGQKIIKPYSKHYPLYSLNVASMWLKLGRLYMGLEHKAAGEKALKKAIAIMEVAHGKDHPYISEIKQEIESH
Sequence of Histone-lysine N-methyltransferase, H3 lysine-79 specific (Q8TEK3 whole entry): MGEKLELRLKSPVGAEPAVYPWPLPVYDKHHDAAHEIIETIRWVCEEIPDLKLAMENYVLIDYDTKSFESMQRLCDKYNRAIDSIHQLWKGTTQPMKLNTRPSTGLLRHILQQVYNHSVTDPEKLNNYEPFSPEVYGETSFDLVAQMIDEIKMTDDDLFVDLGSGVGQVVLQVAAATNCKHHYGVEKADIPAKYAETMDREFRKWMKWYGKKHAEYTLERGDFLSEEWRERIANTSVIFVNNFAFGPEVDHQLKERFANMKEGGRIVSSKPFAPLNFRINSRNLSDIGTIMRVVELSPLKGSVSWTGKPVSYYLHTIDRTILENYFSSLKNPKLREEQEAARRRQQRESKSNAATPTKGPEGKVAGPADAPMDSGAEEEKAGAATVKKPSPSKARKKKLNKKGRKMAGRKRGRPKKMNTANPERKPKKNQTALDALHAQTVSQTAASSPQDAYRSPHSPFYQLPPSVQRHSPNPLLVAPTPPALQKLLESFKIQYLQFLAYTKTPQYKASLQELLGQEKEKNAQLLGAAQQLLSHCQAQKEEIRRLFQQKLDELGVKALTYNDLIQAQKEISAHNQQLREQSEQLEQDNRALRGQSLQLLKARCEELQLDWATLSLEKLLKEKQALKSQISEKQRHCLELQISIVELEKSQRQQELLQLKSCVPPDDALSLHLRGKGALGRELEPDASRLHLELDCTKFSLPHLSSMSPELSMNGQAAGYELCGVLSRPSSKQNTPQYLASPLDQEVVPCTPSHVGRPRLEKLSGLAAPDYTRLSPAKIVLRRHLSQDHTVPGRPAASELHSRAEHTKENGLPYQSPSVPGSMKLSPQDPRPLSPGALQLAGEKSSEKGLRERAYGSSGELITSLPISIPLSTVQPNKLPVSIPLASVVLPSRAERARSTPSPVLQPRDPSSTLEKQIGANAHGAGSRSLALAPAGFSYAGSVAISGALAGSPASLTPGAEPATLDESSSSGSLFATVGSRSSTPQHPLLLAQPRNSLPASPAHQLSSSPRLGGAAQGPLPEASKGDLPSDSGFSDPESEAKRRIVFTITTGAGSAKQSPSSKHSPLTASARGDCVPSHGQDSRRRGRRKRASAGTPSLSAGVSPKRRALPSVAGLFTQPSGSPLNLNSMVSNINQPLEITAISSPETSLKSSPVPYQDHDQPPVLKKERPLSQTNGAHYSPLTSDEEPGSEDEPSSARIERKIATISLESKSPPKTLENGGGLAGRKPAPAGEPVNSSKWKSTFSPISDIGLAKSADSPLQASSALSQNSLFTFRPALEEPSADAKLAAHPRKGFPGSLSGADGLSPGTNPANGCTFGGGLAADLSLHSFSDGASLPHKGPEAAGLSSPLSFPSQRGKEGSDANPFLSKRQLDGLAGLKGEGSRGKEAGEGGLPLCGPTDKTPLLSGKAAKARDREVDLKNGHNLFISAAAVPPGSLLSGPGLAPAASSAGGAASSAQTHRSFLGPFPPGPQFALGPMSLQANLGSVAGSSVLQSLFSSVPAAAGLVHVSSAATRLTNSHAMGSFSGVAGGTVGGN

In the case of `NC(=O)c1cccc(CCN(CCC[C@H](N)C(=O)O)C[C@H]2O[C@@H](n3cnc4c(N)ncnc43)[C@H](O)[C@@H]2O)c1`, the IC50 in assay [1] was found to be 14 µM; in assay [3], 1.3 µM; in assay [4], 20 µM; in [5], 40 µM; in assay [6] it was 62 µM. The dissociation constant Kd in assay [2] turned out to be 2.7 µM. The inhibition entry in assay [7] and in assay [8] was “Active” throughout. The deltaH in assay [9] is -4.6 kcal/mol. Besides, the deltaS in assay [10] turned out to be 10 cal/mol/deg.
Turning to `NC(=O)c1cccc(CCN(CC[C@H](N)C(=O)O)C[C@H]2O[C@@H](n3cnc4c(N)ncnc43)[C@H](O)[C@@H]2O)c1`, the concentration for half-maximal inhibition (IC50) in assay [1] came to 160 µM. In addition, in assay [2], the affinity, expressed as Kd, was 42.8 µM. The deltaH in assay [9] is -2.5 kcal/mol. This molecule gave a deltaS in assay [10] of 11.4 cal/mol/deg.

Usually IC50 stands for the point on the concentration scale where inhibition reaches its midpoint. Higher therefore signals a need for much substance. Usually Kd stands for the concentration at which binding is half-saturated. The low end stands for a tighter complex, the high end for a looser complex.
